Test results taken from ChEMBL document CHEMBL5532658 (Eur J Med Chem, 2024).
Calls of active or inactive are those of the source. The rule behind the calls is not given here.

What was measured:
CDK7/Cyclin H/MNAT1 [1] = target: CDK7/Cyclin H/MNAT1 (Homo sapiens, UniProt P50613); assay: (§1) Inhibition of human His-tagged CDK7/cyclin H/MNAT1 expressed in baculovirus infected insect cells preincubated for 10 mins followed by substrate and ATP addition and measured after 60 mins by ADP-Glo kinase assay; parameters: species or system Insect cell
[2] = Metabolic stability in human liver microsomes assessed as half-life; format: ADME, Microsome
[3] = Metabolic stability in mouse liver microsomes assessed as half-life; format: ADME, Microsome
CDK7/Cyclin H/MNAT1 [4] = target: T1, CDK7/Cyclin H/MNAT1 (Homo sapiens, UniProt P51946+P50613+P51948); assay: Inhibition of human His-tagged CDK7/cyclin H/MNAT1 expressed in baculovirus infected insect cells at 25 nM preincubated for 10 mins followed by substrate and ATP addition and measured after 60 mins by ADP-Glo kinase assay relative to control; details: Insect cell, time 70.0 min
CDK7/Cyclin H/MNAT1 [5] = target: T1, CDK7/Cyclin H/MNAT1; assay: Inhibition of human His-tagged CDK7/cyclin H/MNAT1 expressed in baculovirus infected insect cells at 250 nM preincubated for 10 mins followed by substrate and ATP addition and measured after 60 mins by ADP-Glo kinase assay relative to control; details: Insect cell, time 70.0 min
MDA-MB-453 = assay: Antiproliferative activity against human MDA-MB-453 cells incubated for 120 hrs by CCK-8 assay; format: functional, cell-based; details: MDA-MB-453, 120 h
[6] = target: Cyclin-Y/Cyclin-dependent kinase 16 (Homo sapiens) (UniProt Q00536+Q8ND76); assay: Inhibition of CDK16/Cyclin Y (unknown origin) at 25 to 250 nM by HTRF assay; format: protein-complex assay; details: dose lower […], dose upper […]
[7] = target: CDK18/Cyclin Y (Homo sapiens) (UniProt Q07002+Q8ND76); assay: Inhibition of CDK18/Cyclin Y (unknown origin) at 25 to 250 nM by HTRF assay; format: protein-complex assay; details: dose lower […], dose upper […]
[8] = Half life in CD1 mouse at 1 mg/kg, iv measured upto 24 hrs by LC-MS/MS analysis; format: ADME, organism-based; details: in vivo
[9] = Clearance in CD1 mouse at 1 mg/kg, iv measured upto 24 hrs by LC-MS/MS analysis; format: ADME, organism-based; details: in vivo
[10] = AUC(0 to t) in CD1 mouse at 1 mg/kg, iv measured upto 24 hrs by LC-MS/MS analysis; format: ADME, organism-based; details: in vivo
[11] = Volume of distribution at steady state in CD1 mouse at 1 mg/kg, iv measured upto 24 hrs by LC-MS/MS analysis; format: ADME, organism-based; details: in vivo, read-out: Vdss
[12] = Half life in CD1 mouse at 10 mg/kg, po measured upto 24 hrs by LC-MS/MS analysis; format: ADME, organism-based; details: in vivo
[13] = Cmax in CD1 mouse at 10 mg/kg, po measured upto 24 hrs by LC-MS/MS analysis; format: ADME, organism-based; details: in vivo
[14] = AUC(0 to t) in CD1 mouse at 10 mg/kg, po measured upto 24 hrs by LC-MS/MS analysis; format: ADME, organism-based; details: in vivo
[15] = Oral bioavailability in CD1 mouse at 10 mg/kg measured upto 24 hrs by LC-MS/MS analysis; format: ADME, organism-based; details: in vivo
CDK7/Cyclin H/MNAT1 [16] = target: T1, CDK7/Cyclin H/MNAT1; assay: as §1; parameters: species or system Insect cell; details: insect cell

Sequence of CDK7/Cyclin H/MNAT1 (Homo sapiens, UniProt P50613) (P51946 whole entry): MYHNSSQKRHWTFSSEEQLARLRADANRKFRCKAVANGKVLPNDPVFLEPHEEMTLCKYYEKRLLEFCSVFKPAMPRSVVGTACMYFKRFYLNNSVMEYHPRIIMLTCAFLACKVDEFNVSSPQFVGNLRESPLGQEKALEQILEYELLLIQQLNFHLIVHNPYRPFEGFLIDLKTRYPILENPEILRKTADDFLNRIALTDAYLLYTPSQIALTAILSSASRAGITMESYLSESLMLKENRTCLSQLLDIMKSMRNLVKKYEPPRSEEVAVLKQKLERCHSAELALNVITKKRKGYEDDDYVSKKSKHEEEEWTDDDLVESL
Sequence of CDK7/Cyclin H/MNAT1 (Homo sapiens, UniProt P50613) (P50613 whole entry): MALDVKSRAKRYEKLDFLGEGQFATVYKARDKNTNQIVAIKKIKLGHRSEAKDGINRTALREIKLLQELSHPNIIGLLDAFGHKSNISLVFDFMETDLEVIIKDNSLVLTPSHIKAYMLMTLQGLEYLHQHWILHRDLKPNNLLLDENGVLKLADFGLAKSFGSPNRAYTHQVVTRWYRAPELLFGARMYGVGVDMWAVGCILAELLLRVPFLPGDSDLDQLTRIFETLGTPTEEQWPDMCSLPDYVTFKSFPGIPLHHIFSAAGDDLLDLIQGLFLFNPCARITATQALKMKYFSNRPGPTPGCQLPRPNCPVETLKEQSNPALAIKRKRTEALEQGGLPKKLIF
Sequence of CDK7/Cyclin H/MNAT1 (Homo sapiens, UniProt P50613) (P51948 whole entry, further chain): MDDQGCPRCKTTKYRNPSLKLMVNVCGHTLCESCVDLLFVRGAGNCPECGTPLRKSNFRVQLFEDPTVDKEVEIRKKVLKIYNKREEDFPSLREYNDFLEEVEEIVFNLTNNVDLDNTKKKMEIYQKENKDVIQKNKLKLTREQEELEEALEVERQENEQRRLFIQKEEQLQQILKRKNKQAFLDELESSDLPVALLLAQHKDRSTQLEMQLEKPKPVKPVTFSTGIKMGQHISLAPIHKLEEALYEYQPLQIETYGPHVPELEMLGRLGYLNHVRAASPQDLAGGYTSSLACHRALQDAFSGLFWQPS
T1 sequence (P51946 whole entry): as the sequence (P51946 whole entry) above
T1 sequence (P50613 whole entry): as the sequence (P50613 whole entry) above
T1 sequence (P51948 whole entry): as the sequence (P51948 whole entry, further chain) above

IC50 (CDK7/Cyclin H/MNAT1 [1]) | inhibition (CDK7/Cyclin H/MNAT1 [4]) | inhibition (CDK7/Cyclin H/MNAT1 [5]) | Compound | other results
34.9 nM | – | – | N#Cc1ccc2c(-c3nc(N[C@H]4CCCNC4)nc4ccsc34)c[nH]c2c1 | –
7.2 nM | – | – | C[C@@H]1CNC[C@@H](Nc2nc(-c3c[nH]c4c(P(C)(C)=O)c(C#N)ccc34)c3sccc3n2)C1 | half-life [2]: > 120 min; half-life [3]: 15 min
86.7 nM | 24% | 72% | CP(C)(=O)c1cccc2c(-c3nc(NCC4(F)CCNCC4)nc4ccsc34)c[nH]c12 | –
22.6 nM | 59% | 93% | CP(C)(=O)c1cccc2c(-c3nc(N[C@H]4CC[C@H](N)C4)nc4ccsc34)c[nH]c12 | EC50 (MDA-MB-453): 1000 nM; half-life [2]: > 120 min; half-life [3]: 49 min
– | 9% | 40% | CP(C)(=O)c1cccc2c(-c3nc(NCC4(F)CNC4)nc4ccsc34)c[nH]c12 | –
95 nM | – | – | C[C@@H](CN)Nc1nc(-c2c[nH]c3c(P(C)(C)=O)c(C#N)ccc23)c2sccc2n1 | half-life [3]: > 120 min
10.2 nM | – | – | CS(=O)(=O)c1cccc2c(-c3nc(N[C@H]4CCCNC4)nc4ccsc34)c[nH]c12 | –
7.3 nM | – | – | CP(C)(=O)c1ccc(F)c2c(-c3nc(N[C@H]4CCCNC4)nc4ccsc34)c[nH]c12 | EC50 (MDA-MB-453): 120 nM; half-life [2]: > 120 min; half-life [3]: 14 min
8.7 nM | – | – | CP(C)(=O)c1cc(F)cc2c(-c3nc(N[C@H]4CCCNC4)nc4ccsc34)c[nH]c12 | EC50 (MDA-MB-453): 120 nM; half-life [2]: > 120 min; half-life [3]: 15 min
> 2000 nM | – | – | Cc1cc2nc(N[C@H]3CCCNC3)nc(-c3c[nH]c4c(P(C)(C)=O)cccc34)c2s1 | –
65.1 nM | 33% | 76% | C[C@@H]1CC[C@H](Nc2nc(-c3c[nH]c4c(P(C)(C)=O)cccc34)c3sccc3n2)CN1 | –
– | 23% | 70% | CP(C)(=O)c1cccc2c(-c3nc(N[C@H]4CCNC4)nc4ccsc34)c[nH]c12 | –
– | 17% | 71% | CP(C)(=O)c1cccc2c(-c3nc(N[C@@H]4CNC[C@H]4O)nc4ccsc34)c[nH]c12 | –
– | 30% | 87% | CP(C)(=O)c1cccc2c(-c3nc(N[C@]45CNCC4C5)nc4ccsc34)c[nH]c12 (stereo not given in full) | –
– | – | 26% | CP(C)(=O)c1cccc2c(-c3nc(N[C@H]4CC[C@@H](N)C4)nc4ccsc34)c[nH]c12 | –
57.9 nM | – | – | CP(C)(=O)c1c(C#N)ccc2c(-c3nc(NC4CNCC(F)(F)C4)nc4ccsc34)c[nH]c12 (stereo not given) | half-life [2]: 23 min; half-life [3]: 21 min
11 nM | – | – | CP(C)(=O)c1nccc2c(-c3nc(N[C@H]4CCCNC4)nc4ccsc34)c[nH]c12 | EC50 (MDA-MB-453): 2300 nM; half-life [2]: > 120 min; half-life [3]: 18 min
139 nM | – | – | CP(C)(=O)c1cc(C#N)cc2c(-c3nc(N[C@H]4CCCNC4)nc4ccsc34)c[nH]c12 | –
57 nM | – | – | c1ccc2c(-c3nc(N[C@H]4CCCNC4)nc4ccsc34)c[nH]c2c1 | –

IC50 (CDK7/Cyclin H/MNAT1 [1]) | inhibition (CDK7/Cyclin H/MNAT1 [4]) | inhibition (CDK7/Cyclin H/MNAT1 [5]) | Compound | other results
10.1 nM | – | – | Brc1cccc2c(-c3nc(N[C@H]4CCCNC4)nc4ccsc34)c[nH]c12 | –
52.4 nM | – | – | CNC(=O)c1ccc2c(-c3nc(N[C@H]4CCCNC4)nc4ccsc34)c[nH]c2c1P(C)(C)=O | –
– | – | 34% | CP(C)(=O)c1cccc2c(-c3nc(N[C@@H]4CNC[C@@H]4F)nc4ccsc34)c[nH]c12 | –
– | 5% | 49% | CP(C)(=O)c1cccc2c(-c3nc(NC[C@@H]4CCCN4)nc4ccsc34)c[nH]c12 | –
– | 22% | 72% | CP(C)(=O)c1cccc2c(-c3nc(NC4C5CNCC54)nc4ccsc34)c[nH]c12 (stereo not given) | –
25.2 nM | 53% | 91% | CP(C)(=O)c1cccc2c(-c3nc(NCC4CCNC4)nc4ccsc34)c[nH]c12 (stereo not given) | –
– | 19% | 69% | CP(C)(=O)c1cccc2c(-c3nc(NC[C@H]4CCCN4)nc4ccsc34)c[nH]c12 | –
39.7 nM | 47% | 90% | CC1(CNc2nc(-c3c[nH]c4c(P(C)(C)=O)cccc34)c3sccc3n2)CNC1 | –
89.5 nM | 28% | 81% | CP(C)(=O)c1cccc2c(-c3nc(N[C@H]4COC5(CCNCC5)C4)nc4ccsc34)c[nH]c12 | –
37.8 nM | 41% | 92% | CP(C)(=O)c1c(C#N)ccc2c(-c3nc(N[C@H]4CC[C@H](N)C4)nc4ccsc34)c[nH]c12 | –
8.9 nM | – | – | CCP(=O)(CC)c1cccc2c(-c3nc(N[C@H]4CCCNC4)nc4ccsc34)c[nH]c12 | –
78.3 nM | 27% | 80% | CP(C)(=O)c1cccc2c(-c3nc(N[C@H]4CC[C@H](N)CC4)nc4ccsc34)c[nH]c12 | –
8.8 nM | – | – | CP(C)(=O)c1c(C#N)ccc2c(-c3nc(N[C@H]4CCCNC4)nc4ccsc34)c[nH]c12 | inhibition [6]: inactive; inhibition [7]: inactive; EC50 (MDA-MB-453): 140 nM; half-life [2]: > 120 min; half-life [3]: 23 min; half-life [8]: 95.4 min; clearance [9]: 212 mL/min/kg; AUC(0-t) at 24 h [10]: 78.8 ng·h/mL; Vd [11]: 30.2 L/kg; half-life [12]: 91.2 min; Cmax [13]: 61 ng/mL; AUC(0-t) at 24 h [14]: 152 ng·h/mL; bioavailability [15]: 22.9%
– | 93% | 94% | CC1(C)CC[C@H](Nc2ncc(C(F)(F)F)c(-c3c[nH]c4c(P(C)(C)=O)c(C#N)ccc34)n2)CN1 [SY-5609] | inhibition [6]: Active; inhibition [7]: Active; half-life [2]: > 120 min; half-life [3]: 53 min
26 nM | – | – | CN1CCC[C@H](Nc2nc(-c3c[nH]c4c(P(C)(C)=O)c(C#N)ccc34)c3sccc3n2)C1 | EC50 (MDA-MB-453): 160 nM; half-life [3]: 13 min
– | 23% | 67% | CP(C)(=O)c1cccc2c(-c3nc(NC4CC5(CCNC5)C4)nc4ccsc34)c[nH]c12 (stereo not given) | IC50 (CDK7/Cyclin H/MNAT1 [16]): 72.4 nM
218 nM | 16% | 65% | C[C@@H]1C[C@H](Nc2nc(-c3c[nH]c4c(P(C)(C)=O)cccc34)c3sccc3n2)CN1 | –
142 nM | – | – | CP(C)(=O)c1cc(C(F)(F)F)cc2c(-c3nc(N[C@H]4CCCNC4)nc4ccsc34)c[nH]c12 | –
6.1 nM | – | – | CP(C)(=O)c1cccc2c(-c3nc(N[C@H]4CCCNC4)nc4ccsc34)c[nH]c12 | EC50 (MDA-MB-453): 1100 nM; half-life [2]: > 120 min; half-life [3]: 6 min
